From ChEMBL document CHEMBL2407067, “Pyridone-conjugated monobactam antibiotics with gram-negative activity” (J Med Chem, 2013)

Legend:
Pseudomonas aeruginosa [1] = experiment: Antibacterial activity against PiuA/PirA receptor-deficient Pseudomonas aeruginosa PAO1 in iron-chelated Muller-Hinton broth medium by broth microdilution method; type: functional
Pseudomonas aeruginosa [2] = experiment: Antibacterial activity against FpvA receptor-deficient Pseudomonas aeruginosa PAO1 in Muller-Hinton broth medium by broth microdilution method; type: functional
Pseudomonas aeruginosa [3] = experiment: Antibacterial activity against PiuA/FptA receptor-deficient Pseudomonas aeruginosa PAO1 in Muller-Hinton broth medium by broth microdilution method; type: functional
Pseudomonas aeruginosa [4] = experiment: Ratio of MIC for PiuA receptor-deficient Pseudomonas aeruginosa PAO1 to MIC for Pseudomonas aeruginosa PAO1 in Muller-Hinton broth medium by broth microdilution method; type: functional
Pseudomonas aeruginosa [5] = experiment: Antibacterial activity against FptA receptor-deficient Pseudomonas aeruginosa PAO1 in iron-chelated Muller-Hinton broth medium by broth microdilution method; type: functional
Pseudomonas aeruginosa [6] = experiment: Antibacterial activity against PiuA/FptA receptor-deficient Pseudomonas aeruginosa PAO1 in iron-chelated Muller-Hinton broth medium by broth microdilution method; type: functional
Pseudomonas aeruginosa [7] = experiment: Antibacterial activity against PiuA receptor-deficient Pseudomonas aeruginosa PAO1 in iron-chelated Muller-Hinton broth medium by broth microdilution method; type: functional
Pseudomonas aeruginosa [8] = experiment: Antibacterial activity against PiuA/PirA receptor-deficient Pseudomonas aeruginosa PAO1 in Muller-Hinton broth medium by broth microdilution method; type: functional
Acinetobacter baumannii = experiment: Antibacterial activity against Acinetobacter baumannii AB-3167 by broth microdilution method; type: functional
Pseudomonas aeruginosa [9] = experiment: Antibacterial activity against FpvA receptor-deficient Pseudomonas aeruginosa PAO1 in iron-chelated Muller-Hinton broth medium by broth microdilution method; type: functional
Pseudomonas aeruginosa [10] = experiment: Antibacterial activity against Pseudomonas aeruginosa 1042-06 by broth microdilution method; type: functional
Pseudomonas aeruginosa [11] = experiment: Antibacterial activity against PirA receptor-deficient Pseudomonas aeruginosa PAO1 in Muller-Hinton broth medium by broth microdilution method; type: functional
Klebsiella pneumoniae [12] = experiment: Antibacterial activity against Klebsiella pneumoniae 1487-07 by broth microdilution method; type: functional
Pseudomonas aeruginosa [13] = experiment: Ratio of MIC for PiuA/PirA receptor-deficient Pseudomonas aeruginosa PAO1 to MIC for Pseudomonas aeruginosa PAO1 in Muller-Hinton broth medium by broth microdilution method; type: functional
Pseudomonas aeruginosa [14] = experiment: Antibacterial activity against PiuA/FpvA receptor-deficient Pseudomonas aeruginosa PAO1 in Muller-Hinton broth medium by broth microdilution method; type: functional
Pseudomonas aeruginosa [15] = experiment: Antibacterial activity against PirA receptor-deficient Pseudomonas aeruginosa PAO1 in iron-chelated Muller-Hinton broth medium by broth microdilution method; type: functional
Klebsiella pneumoniae [16] = experiment: Antibacterial activity against Klebsiella pneumoniae 1000-02 by broth microdilution method; type: functional
Pseudomonas aeruginosa [17] = experiment: microbe, parasite or virus in culture; conditions: 1091-05
Description: Antibacterial activity against Pseudomonas aeruginosa 1091-05 by broth microdilution method

Pseudomonas aeruginosa [18] = experiment: Antibacterial activity against Pseudomonas aeruginosa PAO1 in iron-chelated Muller-Hinton broth medium by broth microdilution method; type: functional
Pseudomonas aeruginosa [19] = experiment: Ratio of MIC for PiuA/PirA receptor-deficient Pseudomonas aeruginosa PAO1 to MIC for Pseudomonas aeruginosa PAO1 in iron-chelated Muller-Hinton broth medium by broth microdilution method; type: functional
Pseudomonas aeruginosa [20] = experiment: Antibacterial activity against PiuA/FpvA receptor-deficient Pseudomonas aeruginosa PAO1 in iron-chelated Muller-Hinton broth medium by broth microdilution method; type: functional
Pseudomonas aeruginosa [21] = experiment: Antibacterial activity against Pseudomonas aeruginosa PAO1 in Muller-Hinton broth medium by broth microdilution method; type: functional
Pseudomonas aeruginosa [22] = experiment: Antibacterial activity against PiuA receptor-deficient Pseudomonas aeruginosa PAO1 in Muller-Hinton broth medium by broth microdilution method; type: functional
Pseudomonas aeruginosa [23] = experiment: Antibacterial activity against FptA receptor-deficient Pseudomonas aeruginosa PAO1 in Muller-Hinton broth medium by broth microdilution method; type: functional
[24] = Plasma clearance in Wistar Han rat at 1 mg/kg, iv by LC/MS/MS analysis; type: ADME, organism-based; design: dose 1 mg/kg, route intravenous
[25] = Fraction unbound in mouse plasma; type: ADME, cell-free
Rattus norvegicus = experiment: Intrinsic clearance in Wistar Han rat at 1 mg/kg, iv by LC/MS/MS analysis; type: ADME, organism-based; design: dose 1 mg/kg, route intravenous; conditions: in vivo
[26] = Fraction unbound in rat plasma; type: ADME, cell-free
[27] = Fraction unbound in human plasma; type: ADME, cell-free
[28] = Inhibition of PBP1a in Pseudomonas aeruginosa ATCC 27853 after 20 mins by fluorescence assay
[29] = Inhibition of PBP3 in Pseudomonas aeruginosa ATCC 27853 after 20 mins by fluorescence assay
[30] = Inhibition of PBP1b in Pseudomonas aeruginosa ATCC 27853 after 20 mins by fluorescence assay
[31] = Inhibition of PBP2 in Pseudomonas aeruginosa ATCC 27853 after 20 mins by fluorescence assay

SMILES	MIC (Pseudomonas aeruginosa [1]) [µg/mL]	MIC (Pseudomonas aeruginosa [2]) [µg/mL]	MIC (Pseudomonas aeruginosa [3]) [µg/mL]	Ratio (Pseudomonas aeruginosa [4])	MIC (Pseudomonas aeruginosa [5]) [µg/mL]	MIC (Pseudomonas aeruginosa [6]) [µg/mL]	MIC (Pseudomonas aeruginosa [7]) [µg/mL]	MIC (Pseudomonas aeruginosa [8]) [µg/mL]	MIC (Acinetobacter baumannii) [µg/mL]	MIC (Pseudomonas aeruginosa [9]) [µg/mL]	MIC (Pseudomonas aeruginosa [10]) [µg/mL]	MIC (Pseudomonas aeruginosa [11]) [µg/mL]	Ratio (Pseudomonas aeruginosa [13])	MIC (Pseudomonas aeruginosa [14]) [µg/mL]	MIC (Pseudomonas aeruginosa [15]) [µg/mL]	MIC (Klebsiella pneumoniae [16]) [µg/mL]	MIC (Pseudomonas aeruginosa [17]) [µg/mL]	MIC (Pseudomonas aeruginosa [18]) [µg/mL]	Ratio (Pseudomonas aeruginosa [19])	MIC (Pseudomonas aeruginosa [20]) [µg/mL]	other results
CC(C)(O/N=C(\C(=O)N[C@@H]1C(=O)N(S(=O)(=O)[O-])[C@@H]1CNC(=O)c1cc(=O)c(O)cn1O)c1csc(N)n1)C(=O)[O-].[Na+].[Na+]	64	1	8	16	0.5	0.5	0.5	64	0.5	0.5	0.5	0.5	>=64	16	0.5	< 0.06	0.5	0.5	>=64	1	MIC (Klebsiella pneumoniae [12]): 0.25 µg/mL; MIC (Pseudomonas aeruginosa [21]): 0.5 µg/mL; MIC (Pseudomonas aeruginosa [22]): 8 µg/mL; MIC (Pseudomonas aeruginosa [23]): 0.5 µg/mL
CC(C)(O/N=C(\C(=O)N[C@@H]1C(=O)N(S(=O)(=O)[O-])[C@@H]1CNC(=O)OCc1cc(=O)c(O)cn1O)c1csc(N)n1)C(=O)[O-].[Na+].[Na+]									0.125		2					4	0.25				clearance [24]: 14.2 mL/min/kg; fraction unbound [25]: 0.72; CL (Rattus norvegicus): 29 mL/min/kg; fraction unbound [26]: 0.61; fraction unbound [27]: 0.51
CC(C)(O/N=C(\C(=O)N[C@@H]1C(=O)N(S(=O)(=O)[O-])[C@@H]1CNC(=O)c1cc(-c2cc(=O)c(O)cn2O)no1)c1csc(N)n1)C(=O)[O-].[Na+].[Na+]	16	0.125	8	32	0.25	1	1	32	0.125	0.125	0.25	0.25	>=64	8	0.25	1	0.25	0.25	>=64	0.5	IC50 [28]: 110 nM; IC50 [29]: 6 nM; IC50 [30]: 150 nM; MIC (Pseudomonas aeruginosa [21]): 0.25 µg/mL; MIC (Pseudomonas aeruginosa [22]): 8 µg/mL; MIC (Pseudomonas aeruginosa [23]): 0.25 µg/mL; IC50 [31]: > 300000 nM
